According to the supplement of paper PMC11208160:

Assay: recombinant UMI read abundance after kanamycin selection (control-corrected) (log10(CPM+1)); higher = more efficient recombination; extreme values may be limits of the assay; sequences stand for … in AGTGCAGAGAAAATCGGCCAGTTTTCTCTGCCTGCAGTCCGCATGCCGTGGGACCCCTTGGGTTCTAACCTGTTGCCTAGATTTATGCAGCGGACTGCCTTTCTCCCAAAGTGATAAACCGG…AGGTTGGTTTCACT; site = the 11-nt donor
Procedure, shortened: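 In a pooled Escherichia coli screen for the IS621 bridge recombinase, donor and donor-binding-loop pairs were each placed with a 12-nt UMI on a plasmid bearing a promoterless kanamycin gene. This library was co-electroporated with a target plasmid encoding a fixed target and T7-inducible recombinase, and cells were plated either on IPTG (0.07 mM) plus kanamycin or without selection, in two replicates each. Recombinant UMIs were PCR-amplified across the donor–target junction and sequenced, and counts were converted to CPM, averaged over replicates, scaled by control-derived factors and reported as log10(CPM+1).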
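Also: IS621 bridge recombinase in Escherichia coli cells against a fixed T5 target plasmid.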

Sequence	recombinant UMI read abundance (log10)
CGATCATCATGGACCGGTTTTCCCGGTAATCCGTATTTGCT (site CGATCATCTTG)	0
CGATCATCATGGACCGGTTTTCCCGGTAATCCGTATTTGCT (site CGATCCACTAG)	0.00991
CGATCATCATGGACCGGTTTTCCCGGTAATCCGTATTTGCT (site CGATCCTCTAC)	0.00344
CGATCATCATGGACCGGTTTTCCCGGTAATCCGTATTTGCT (site CGATCCTCTAG)	0
CGATCATCATGGACCGGTTTTCCCGGTAATCCGTATTTGCT (site CGATCCTCTCG)	0.00562
CGATCATCATGGACCGGTTTTCCCGGTAATCCGTATTTGCT (site CGATCGCCTAG)	0.00385
CGATCATCATGGACCGGTTTTCCCGGTAATCCGTATTTGCT (site CGATCGTCTAG)	0
CGATCATCATGGACCGGTTTTCCCGGTAATCCGTATTTGCT (site CGATCGTCTAT)	0
CGATCATCATGGACCGGTTTTCCCGGTAATCCGTATTTGCT (site CGATCGTCTGG)	0
CGATCATCATGGACCGGTTTTCCCGGTAATCCGTATTTGCT (site CGATCTGCTAG)	0
CGATCATCATGGACCGGTTTTCCCGGTAATCCGTATTTGCT (site CGATCTTCTAA)	0
CGATCATCATGGACCGGTTTTCCCGGTAATCCGTATTTGCT (site CGATCTTCTAG)	0
CGATCATCATGGACCGGTTTTCCCGGTAATCCGTATTTGCT (site CGATCTTCTTG)	0
CGATCATCATGGACCGGTTTTCCCGGTAATCCGTATTTGCT (site CGATGACCTAG)	0
CGATCATCATGGACCGGTTTTCCCGGTAATCCGTATTTGCT (site CGATGATCTAG)	0
CGATCATCATGGACCGGTTTTCCCGGTAATCCGTATTTGCT (site CGATGATCTAT)	0.00469
CGATCATCATGGACCGGTTTTCCCGGTAATCCGTATTTGCT (site CGATGATCTGG)	0
CGATCATCATGGACCGGTTTTCCCGGTAATCCGTATTTGCT (site CGATGGTCTAG)	0
CGATCATCATGGACCGGTTTTCCCGGTAATCCGTATTTGCT (site CGATTAGCTAG)	0.0161
CGATCATCATGGACCGGTTTTCCCGGTAATCCGTATTTGCT (site CGATTATCTAA)	0
CGATCATCATGGACCGGTTTTCCCGGTAATCCGTATTTGCT (site CGATTATCTAG)	0
CGATCATCATGGACCGGTTTTCCCGGTAATCCGTATTTGCT (site CGATTATCTTG)	0
CGATCATCATGGACCGGTTTTCCCGGTAATCCGTATTTGCT (site CGATTTTCTAG)	0
CGATCATCATGGACCGGTTTTCCCGGTAATCCGTATTTGCT (site CGCCCATCTAG)	0.133
CGATCATCATGGACCGGTTTTCCCGGTAATCCGTATTTGCT (site CGCTAATCTAG)	0

Sequence	recombinant UMI read abundance (log10)
CGATCATCATGGACCGGTTTTCCCGGTAATCCGTATTTGCT (site CGCTCAACTAG)	0
CGATCATCATGGACCGGTTTTCCCGGTAATCCGTATTTGCT (site CGCTCATCTAC)	0.00488
CGATCATCATGGACCGGTTTTCCCGGTAATCCGTATTTGCT (site CGCTCATCTAG)	0.295
CGATCATCATGGACCGGTTTTCCCGGTAATCCGTATTTGCT (site CGCTCATCTCG)	0
CGATCATCATGGACCGGTTTTCCCGGTAATCCGTATTTGCT (site CGCTCCTCTAG)	0
CGATCATCATGGACCGGTTTTCCCGGTAATCCGTATTTGCT (site CGGGCATCTAG)	0
CGATCATCATGGACCGGTTTTCCCGGTAATCCGTATTTGCT (site CGGTCAGCTAG)	0.0144
CGATCATCATGGACCGGTTTTCCCGGTAATCCGTATTTGCT (site CGGTCATCTAA)	0.0171
CGATCATCATGGACCGGTTTTCCCGGTAATCCGTATTTGCT (site CGGTCATCTAG)	0
CGATCATCATGGACCGGTTTTCCCGGTAATCCGTATTTGCT (site CGGTCATCTTG)	0.00419
CGATCATCATGGACCGGTTTTCCCGGTAATCCGTATTTGCT (site CGGTCTTCTAG)	0.0105
CGATCATCATGGACCGGTTTTCCCGGTAATCCGTATTTGCT (site CGGTTATCTAG)	0
CGATCATCATGGACCGGTTTTCCCGGTAATCCGTATTTGCT (site CGTACATCTAG)	1.61
CGATCATCATGGACCGGTTTTCCCGGTAATCCGTATTTGCT (site CGTTCACCTAG)	0
CGATCATCATGGACCGGTTTTCCCGGTAATCCGTATTTGCT (site CGTTCATCTAG)	1.53
CGATCATCATGGACCGGTTTTCCCGGTAATCCGTATTTGCT (site CGTTCATCTAT)	0
CGATCATCATGGACCGGTTTTCCCGGTAATCCGTATTTGCT (site CGTTCATCTGG)	0
CGATCATCATGGACCGGTTTTCCCGGTAATCCGTATTTGCT (site CGTTCGTCTAG)	0.0117
CGATCATCATGGACCGGTTTTCCCGGTAATCCGTATTTGCT (site CGTTGATCTAG)	0
CGATCATCATGGACCGGTTTTCCCGGTAATCCGTATTTGCT (site CTACCATCTAG)	1.69
CGATCATCATGGACCGGTTTTCCCGGTAATCCGTATTTGCT (site CTATAATCTAG)	1.08
CGATCATCATGGACCGGTTTTCCCGGTAATCCGTATTTGCT (site CTATCAACTAG)	0
CGATCATCATGGACCGGTTTTCCCGGTAATCCGTATTTGCT (site CTATCATCTAC)	0.00862
CGATCATCATGGACCGGTTTTCCCGGTAATCCGTATTTGCT (site CTATCATCTAG)	1.22
CGATCATCATGGACCGGTTTTCCCGGTAATCCGTATTTGCT (site CTATCATCTCG)	0.0222

Sequence	recombinant UMI read abundance (log10)
CGATCATCATGGACCGGTTTTCCCGGTAATCCGTATTTGCT (site CTATCCTCTAG)	0
CGATCATCATGGACCGGTTTTCCCGGTAATCCGTATTTGCT (site CTCTCATCTAG)	0.961
CGATCATCATGGACCGGTTTTCCCGGTAATCCGTATTTGCT (site GAATCATCTAG)	0
CGATCATCATGGACCGGTTTTCCCGGTAATCCGTATTTGCT (site GGAACATCTAG)	0.00516
CGATCATCATGGACCGGTTTTCCCGGTAATCCGTATTTGCT (site GGATCACCTAG)	0.00443
CGATCATCATGGACCGGTTTTCCCGGTAATCCGTATTTGCT (site GGATCATCTAG)	0.606
CGATCATCATGGACCGGTTTTCCCGGTAATCCGTATTTGCT (site GGATCATCTAT)	0.0067
CGATCATCATGGACCGGTTTTCCCGGTAATCCGTATTTGCT (site GGATCATCTGG)	0
CGATCATCATGGACCGGTTTTCCCGGTAATCCGTATTTGCT (site GGATCGTCTAG)	0.00614
CGATCATCATGGACCGGTTTTCCCGGTAATCCGTATTTGCT (site GGATGATCTAG)	0
CGATCATCATGGACCGGTTTTCCCGGTAATCCGTATTTGCT (site GGTTCATCTAG)	0
CGATCATCATGGACCGGTTTTCCCGGTAATCCGTATTTGCT (site TGACCATCTAG)	1.21
CGATCATCATGGACCGGTTTTCCCGGTAATCCGTATTTGCT (site TGATAATCTAG)	0
CGATCATCATGGACCGGTTTTCCCGGTAATCCGTATTTGCT (site TGATCAACTAG)	0
CGATCATCATGGACCGGTTTTCCCGGTAATCCGTATTTGCT (site TGATCATCTAC)	0.00378
CGATCATCATGGACCGGTTTTCCCGGTAATCCGTATTTGCT (site TGATCATCTAG)	0.864
CGATCATCATGGACCGGTTTTCCCGGTAATCCGTATTTGCT (site TGATCATCTCG)	0.00793
CGATCATCATGGACCGGTTTTCCCGGTAATCCGTATTTGCT (site TGATCCTCTAG)	0
CGATCATCATGGACCGGTTTTCCCGGTAATCCGTATTTGCT (site TGCTCATCTAG)	0
CGATCATCATGGACCGGTTTTCCCGGTAATCCGTATTTGCT (site TTATCATCTAG)	1.88
CGATCATCATGGACCGGTTTTCCCGGTAATCCGTATTTGTA (site CGATCATCTAG)	0
CGATCATCATGGACCGGTTTTCCCGGTAATCCGTATTTGTA (site CGATCATCTTA)	2.57
CGATCATCATGGACCGGTTTTCCCGGTAATCCGTATTTGTT (site CGATCATCTAA)	1.4
CGATCATCATGGACCGGTTTTCCCGGTAATCCGTATTTGTT (site CGATCATCTAC)	0
CGATCATCATGGACCGGTTTTCCCGGTAATCCGTATTTGTT (site CGATCATCTAG)	0
